System: COLO205 cells
Assay: Phospho-proteome profiling (CDK-motif antibody enrichment, LC-MS/MS)
Assay type: cell-based, human
Conditions: 6 H
Excerpt: We phospho-proteome profiled COLO205 cells to identify Mediator kinase substrates following chemical inhibition of Mediator kinase activity. Given the confirmed CDK8/19 selectivity of our compounds in binding and enzymatic activity assays, we employed a pool of antibodies selective for the proline-rich motifs phosphorylated by the CDK family to enrich potential CDK8/19 substrates for LC-MS/MS analysis.
Adherent COLO205 cells were lysed with a urea buffer, lysates were reduced with DTT, alkylated with iodoacetimide and digested with trypsin-tosylphenylalanyl chloromethyl ketone. Digested peptides were immunoprecipitated using a pool of motif antibodies from Cell Signaling Technologies (US) comprising: phospho-MAPK substrate (PXS*P or S*PXR/K, #2325, RRID:AB_331820), phospho-CDKs substrate ((K/H)-S*P, #2324; RRID:AB_2244779), phospho-PLK binding motif (ST*P, #5243; RRID:AB_10891778) and phospho-tPE motif (T*PE, #3004; RRID:AB_10890649)-of phospho-MAPK (2325), phospho-CDK (2324), phospho-PLK (5243) and phospho-tPE (C3004) motif-recognizing antibodies immobilized onto protein A/G beads. Immunoprecipitated peptides were analyzed using an LTQ-Orbitrap-Velos. Sequences were assigned to the MS/MS spectra and evaluated using SEQUEST 3G and SORCERER 2 (Sage-N Research v4.0, Milpitas). Quantitative data was evaluated and clustered in Spotfire Decision Site (www.spotfire.tibco.com) and normalized using quartile normalization. Functional annotation and pathway analysis used DAVID (https://david.ncifcrf.gov/). […]
Phospho-proteome analyses
Adherent COLO205 cells were washed with PBS and cells lysed using urea lysis buffer (9 M Urea, 20 mM HEPES, pH 8.0, 1 mM beta-glycerophosphate, 1 mM sodium vanadate, 2.5 mM sodium pyrophosphate) and stored at -80 °C prior to analysis. The supernatants were reduced with 100 mM DTT for 30 minutes at 55 °C, followed by alkylation with 50 mM iodoacetimide for 15 minutes at ambient temperature in the dark.
The samples were diluted in 20 mM HEPES, pH 8.0 and digested overnight with 10 ug/mL trypsin-tosylphenylalanyl chloromethyl ketone in 1 mM HCl. Digested peptides were acidified with 1% formic acid and then desalted over 360-mg SEP PAK C18 columns (Waters, UK). Peptides were eluted with 40% acetonitrile in 0.125% formic acid, dried under a vacuum and the lyophilised peptides used for immunoprecipitation.
A pool of motif antibodies from Cell Signaling Technologies (US) comprising: phospho-MAPK substrate (PXS*P or S*PXR/K, #2325, RRID:AB_331820), phospho-CDKs substrate ((K/H)S*P, #2324; RRID:AB_2244779), phospho-PLK binding motif (ST*P, […]
RRID:AB_10890649), were immobilised onto protein A/G beads overnight at 4 °C. The lyophilised peptides were resuspended in MOPS buffer (50 mM MOPS, pH 7.2, 10 mM KH2PO4, 50 mM NaCl) and centrifuged for 5 mins at 13,500 rpm in an Eppendorf benchtop microcentrifuge. The supernatants were incubated with the motif-bound beads for 2.5 hours at 4 °C . The beads were harvested by centrifugation at 4000 rpm in an Eppendorf benchtop microcentrifuge for 5 mins, washed with MOPS buffer twice and washed again 5 times with deionised water. The peptides were eluted off the beads using 0.125% formic acid, were desalted and dried under a vacuum. The lyophilised immunoprecipitated peptides were resuspended in 0.125% formic acid and separated on a capillary column packed with Magic C18 AQ reversed-phase resin.
Peptides were eluted using a 72-minute linear gradient of acetonitrile in 0.125% formic acid delivered at 280nL/min. Samples were analysed using an LTQ-Orbitrap-Velos.
MS Parameter Settings were: MS Run Time 96 min, MS1 Scan Range (300.0 – 1500.00), Top 20 MS/MS (Min Signal 500, Isolation Width 2.0, Normalized Coll.
Charge State Rejection Enabled, Charge State 1+ Rejected, Dynamic Exclusion Enabled, Repeat Count 1, Repeat Duration 35.0, Exclusion List Size 500, Exclusion Duration 40.0, Exclusion Mass Width Relative to Mass, Exclusion Mass Width 10ppm). […]

[1] = FAM122A peptide 69 - hglllpaSpvr - 79
[2] = FBLIM1 peptide 40 - grpweapapmkTpeaglagrpspwttpgr - 68
[3] = FBXW9 peptide 43 - sglafsrpsqlsTpaaSpSasepr - 66
[4] = FBXW9 peptide 48 - srpsqlStpaaSpsasepr - 66
[5] = FOSL1 peptide 235 - ftypStpepcasahr - 249
[6] = GATA6 peptide 26 - afparepStppSpisssssscsr - 48
[7] = GOLGA4 peptide 7 - qkiseeqqqlqqalapaqassnSStptrm#rsr - 39
[8] = HCFC1 peptide 1483 - avttvtqSTpvpgpsvpppeelqvSpgpr - 1511
[9] = HMCES peptide 152 - sgsigaadSpenwek - 166
[10] = HSPA12A peptide 99 - tpttillTper - 109
[11] = INCENP peptide 259 - iaqvSpgprdSpafpdSpwrer - 280
[12] = KANSL1 peptide 955 - ttpqlgSanpSTpqpaSpdvssshslseyShgqSpr - 989
[13] = KIAA1522 peptide 509/569 - rpprSper - 517/576
[14] = KLF6 peptide 140 - lsssvtStppsSpelsrepsqlwgcvpgelpSpgkvr - 176
[15] = KMT2A peptide 3025 - nssTpglqvpvsptvpiqnqk - 3045
[16] = L3MBTL2 peptide 60 - eagelpTSplhllSpgTpr - 78
[17] = LARP4B peptide 725 - rlSreqSTppkSpq - 738
[18] = LASP1 peptide 60 - qsftmvadTpenlr - 73
[19] = LCOR peptide 1212 - arpstkTpessaaqr - 1226
[20] = LIMD1 peptide 190 - wgdkpgvSpSiglsvgsgwpSspgsdpplpkpcgdhplnhr - 230
[21] = LMNA peptide 12 - sgaqaSstplSptr - 25
[22] = LMO7 peptide 595/929 - YngdvedikrTpnnvvSTpapSpdasqlasslssqk - 630/964
[23] = LSM14B peptide 85 - aqhtlpqdpaivqsslgsasaSpfqphvpYSpfr - 118
[24] = MAP7 peptide 668 - vtvesTpdlekqpnengvsvqnenfeeiinlpigskpsr - 706
[25] = MCM4 peptide 38 - rgedststgelqpmptSpgvdlqSpaaqdvl - 68

**Q.** Which “MEAN MS SIGNAL CMPD 1 6 H” value (EZH2 peptide 46 - grlpnnssrpstpTinvlesk - 376) does the source give for `Cn1cc(-c2ccc(-c3cncc(Cl)c3N3CCC4(CCNC4=O)CC3)cc2)cn1` [CCT251545] here?
**A.** 31995

**Q.** What about the “CMPD 1/DMSO” value [1] of the same molecule?
**A.** 2.184

**Q.** And the “MEAN MS SIGNAL CMPD 1 6 H” value [1]?
**A.** 196079

**Q.** And the “CMPD 1/DMSO” value [2]?
**A.** 0.573

**Q.** And the “MEAN MS SIGNAL CMPD 1 6 H” value [2]?
**A.** 86595

**Q.** What about the “CMPD 1/DMSO” value [3] of the same molecule?
**A.** 0.530

**Q.** What about the “MEAN MS SIGNAL CMPD 1 6 H” value [3] of the same molecule?
**A.** 311610

**Q.** What about the “CMPD 1/DMSO” value [4] of the same molecule?
**A.** 0.400

**Q.** What about the “MEAN MS SIGNAL CMPD 1 6 H” value [4] of the same molecule?
**A.** 48006

**Q.** And the “CMPD 1/DMSO” value [5]?
**A.** 0.504

**Q.** What about the “MEAN MS SIGNAL CMPD 1 6 H” value [5] of the same molecule?
**A.** 66830

**Q.** What about the “CMPD 1/DMSO” value [6] of the same molecule?
**A.** 2.355

**Q.** And the “MEAN MS SIGNAL CMPD 1 6 H” value [6]?
**A.** 187382

**Q.** What about the “CMPD 1/DMSO” value [7] of the same molecule?
**A.** 2.322

**Q.** What about the “MEAN MS SIGNAL CMPD 1 6 H” value [7] of the same molecule?
**A.** 104624

**Q.** What about the “CMPD 1/DMSO” value [8] of the same molecule?
**A.** 0.405

**Q.** What about the “MEAN MS SIGNAL CMPD 1 6 H” value [8] of the same molecule?
**A.** 16700

**Q.** What about the “CMPD 1/DMSO” value [9] of the same molecule?
**A.** 0.453

**Q.** And the “MEAN MS SIGNAL CMPD 1 6 H” value [9]?
**A.** 63819

**Q.** What about the “CMPD 1/DMSO” value [10] of the same molecule?
**A.** 0.556

**Q.** And the “MEAN MS SIGNAL CMPD 1 6 H” value [10]?
**A.** 24367

**Q.** And the “CMPD 1/DMSO” value [11]?
**A.** 0.465

**Q.** What about the “MEAN MS SIGNAL CMPD 1 6 H” value [11] of the same molecule?
**A.** 323217

**Q.** What about the “CMPD 1/DMSO” value [12] of the same molecule?
**A.** 0.484

**Q.** And the “MEAN MS SIGNAL CMPD 1 6 H” value [12]?
**A.** 12101

**Q.** What about the “CMPD 1/DMSO” value [13] of the same molecule?
**A.** 1.797

**Q.** What about the “MEAN MS SIGNAL CMPD 1 6 H” value [13] of the same molecule?
**A.** 115710

**Q.** What about the “CMPD 1/DMSO” value [14] of the same molecule?
**A.** 0.607

**Q.** What about the “MEAN MS SIGNAL CMPD 1 6 H” value [14] of the same molecule?
**A.** 32118

**Q.** What about the “CMPD 1/DMSO” value [15] of the same molecule?
**A.** 2.063

**Q.** And the “MEAN MS SIGNAL CMPD 1 6 H” value [15]?
**A.** 28229

**Q.** And the “CMPD 1/DMSO” value [16]?
**A.** 0.490

**Q.** What about the “MEAN MS SIGNAL CMPD 1 6 H” value [16] of the same molecule?
**A.** 91427

**Q.** And the “CMPD 1/DMSO” value [17]?
**A.** 2.299

**Q.** And the “MEAN MS SIGNAL CMPD 1 6 H” value [17]?
**A.** 120169

**Q.** What about the “CMPD 1/DMSO” value [18] of the same molecule?
**A.** 0.584

**Q.** What about the “MEAN MS SIGNAL CMPD 1 6 H” value [18] of the same molecule?
**A.** 786663

**Q.** And the “CMPD 1/DMSO” value [19]?
**A.** 0.545

**Q.** And the “MEAN MS SIGNAL CMPD 1 6 H” value [19]?
**A.** 120796

**Q.** And the “CMPD 1/DMSO” value [20]?
**A.** 0.471

**Q.** What about the “MEAN MS SIGNAL CMPD 1 6 H” value [20] of the same molecule?
**A.** 25519

**Q.** And the “CMPD 1/DMSO” value [21]?
**A.** 0.517

**Q.** And the “MEAN MS SIGNAL CMPD 1 6 H” value [21]?
**A.** 46469

**Q.** What about the “CMPD 1/DMSO” value [22] of the same molecule?
**A.** 0.463

**Q.** And the “MEAN MS SIGNAL CMPD 1 6 H” value [22]?
**A.** 25654

**Q.** What about the “CMPD 1/DMSO” value [23] of the same molecule?
**A.** 0.523

**Q.** And the “MEAN MS SIGNAL CMPD 1 6 H” value [23]?
**A.** 38083

**Q.** And the “CMPD 1/DMSO” value [24]?
**A.** 0.544

**Q.** What about the “MEAN MS SIGNAL CMPD 1 6 H” value [24] of the same molecule?
**A.** 159179

**Q.** And the “CMPD 1/DMSO” value [25]?
**A.** 0.432

**Q.** What about the “MEAN MS SIGNAL CMPD 1 6 H” value [25] of the same molecule?
**A.** 77526

**Q.** And the “CMPD 1/DMSO” value (MCM4 peptide 69 - fSsppqmhssaipldfdvSsplTygtpssr - 98)?
**A.** 0.605

From PMC12281475, “Mediator Kinase Inhibitor Selectivity and Activity in Colorectal Cancer” (ACS Chemical Biology, 2025)
